For 31 compounds, remaining binding results are on record in patent US20220402935A1, “HETEROCYCLIC COMPOUND” (FIMECS, INC., priority 2019, published 2022).

Structures are written as SMILES.

The target in the assay is T1, IRAK-M (Homo sapiens, UniProt Q9Y616).
T1 sequence (Q9Y616 1-596): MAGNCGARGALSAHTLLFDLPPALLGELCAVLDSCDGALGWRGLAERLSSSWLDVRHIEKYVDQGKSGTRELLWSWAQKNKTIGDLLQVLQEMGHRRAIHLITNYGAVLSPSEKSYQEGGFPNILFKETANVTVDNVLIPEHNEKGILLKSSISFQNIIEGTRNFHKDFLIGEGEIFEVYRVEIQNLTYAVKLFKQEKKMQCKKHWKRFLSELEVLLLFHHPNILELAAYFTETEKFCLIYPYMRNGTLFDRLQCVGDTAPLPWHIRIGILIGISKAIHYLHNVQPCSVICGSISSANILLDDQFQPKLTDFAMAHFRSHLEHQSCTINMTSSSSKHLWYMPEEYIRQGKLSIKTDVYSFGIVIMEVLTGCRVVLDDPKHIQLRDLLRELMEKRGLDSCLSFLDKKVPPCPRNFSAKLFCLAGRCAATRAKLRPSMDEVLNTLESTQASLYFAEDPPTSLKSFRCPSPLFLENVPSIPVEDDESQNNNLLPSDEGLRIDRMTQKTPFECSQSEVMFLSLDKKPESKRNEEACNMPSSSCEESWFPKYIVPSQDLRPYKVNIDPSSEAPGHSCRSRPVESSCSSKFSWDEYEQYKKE
Kind of assay: IRAK-M binding inhibitory activity (KINOMEscan active site-dependent competitive assay). Further details: purchased Eurofins Discover X. The settings on record: concentration of the test compound 1 μM; first symbol of cell; read-out: IRAK-M binding inhibition activity % Ctrl. The method, then: IRAK-M binding inhibitory activity was evaluated using active site-dependent competitive assay KINOMEscan® provided by Eurofins Discover X (Goldstein, D. M. et al. High-throughput kinase profiling as a platform for drug discovery. Nat. Rev. Drug Discovery. 7, 391-397 (2008)). IRAK-M binding inhibitory activity of the test compound was evaluated. […] The “% Ctrl” is calculated by the following formula.
(test compound signal−positive control compound signal)/(negative control compound signal−positive control compound signal)×100
Negative control compound=DMSO (100 Ctrl)
Positive control compound=control compound (0%×Ctrl)
Turning to `c1ccc(OC2CCOC2)c(Nc2ncnc3ccsc23)c1` (stereo not shown) [Ref. example 19, N-(2-((tetrahydrofuran-3-yl)oxy)phenyl)thieno[3,2-d]pyrimidin-4-amine], the remaining binding at 1 µM is 50 to 75%.

Take `NC(=O)c1cccc(Nc2ncnc3ccsc23)c1` [Ref. example 20, 3-(thieno[3,2-d]pyrimidin-4-ylamino)benzamide]: the remaining binding at 1 µM fell in the range of 50 to 75%.

Take `c1cc(Nc2ncnc3ccsc23)ccn1` [Ref. example 21, N-(pyridin-4-yl)thieno[3,2-d]pyrimidin-4-amine]: the remaining binding at 1 µM is < 25%.

In the case of `FC(F)(F)c1cc(Nc2ncnc3ccsc23)ccn1` [Ref. example 22, N-(2-(trifluoromethyl)pyridin-4-yl)thieno[3,2-d]pyrimidin-4-amine], the remaining binding at 1 µM lay in the range of 50 to 75%.

As to `COc1cc(Nc2ncnc3ccsc23)ccn1` [Ref. example 23, N-(2-methoxypyridin-4-yl)thieno[3,2-d]pyrimidin-4-amine], the remaining binding at 1 µM was in the range of 25 to 50%.

On to `FC(F)(F)c1ncccc1Nc1ncnc2ccsc12` [Ref. example 24, N-(2-(trifluoromethyl)pyridin-3-yl)thieno[3,2-d]pyrimidin-4-amine], for which the remaining binding at 1 µM was 50 to 75%.

For `Cc1cc(Nc2ncnc3ccsc23)n(-c2ccccn2)n1` [Ref. example 25, N-(3-methyl-1-(pyridin-2-yl)-1H-pyrazol-5-yl)thieno[3,2-d]pyrimidin-4-amine], the remaining binding at 1 µM lay in the range of 25 to 50%.

Turning to `c1nc(Nc2ccc3[nH]cnc3c2)c2sccc2n1` [Ref. example 26, N-(1H-benzo[d]imidazol-5-yl)thieno[3,2-d]pyrimidin-4-amine], the remaining binding at 1 µM is ≥ 75%.

For `O=C1NC(=O)c2cc(Nc3ncnc4ccsc34)ccc21` [Ref. example 27, 5-(thieno[3,2-d]pyrimidin-4-ylamino)isoindoline-1,3-dione], the remaining binding at 1 µM was in the range of 50 to 75%.

As to `c1nc(Nc2ccc3cn[nH]c3c2)c2sccc2n1` [Ref. example 28, N-(1H-indazol-6-yl)thieno[3,2-d]pyrimidin-4-amine], the remaining binding at 1 µM is 50 to 75%.

`O=C1OCc2cc(Nc3ncnc4ccsc34)ccc21` [Ref. example 29, 5-(thieno[3,2-d]pyrimidin-4-ylamino)isobenzofuran-1(3H)-one]: the remaining binding at 1 µM lay in the range of 25 to 50%.

Turning to `COC(=O)c1cc2ncnc(NCC3CC3)c2s1` [Ref. example 30, methyl 4-((cyclopropylmethyl)amino)thieno[3,2-d]pyrimidine-6-carboxylate], the remaining binding at 1 µM is ≥ 75%.

`CN1CCC(Oc2ncnc3cc(-c4cnn(C)c4)sc23)CC1` [Ref. example 31, 6-(1-methyl-1H-pyrazol-4-yl)-4-((1-methylpiperidin-4-yl)oxy)thieno[3,2-d]pyrimidine]: the remaining binding at 1 µM is ≥ 75%.

Turning to `C#Cc1cc2ncnc(OC3CCN(C)CC3)c2s1` [Ref. example 32, 6-ethynyl-4-((1-methylpiperidin-4-yl)oxy)thieno[3,2-d]pyrimidine], the remaining binding at 1 µM is ≥ 75%.

For `NC(=O)c1ccc(Nc2nc(Cl)nc3ccsc23)cc1` [Ref. example 33, 4-((2-chlorothieno[3,2-d]pyrimidin-4-yl)amino)benzamide], the remaining binding at 1 µM was ≥ 75%.

Turning to `Ic1cc2ncnc(OC3CCOCC3)c2s1` [Ref. example 34, 6-iodo-4-((tetrahydro-2H-pyran-4-yl)oxy)thieno[3,2-d]pyrimidine], the remaining binding at 1 µM was ≥ 75%.

For the compound `Ic1cc2ncnc(OC3CCSCC3)c2s1` [Ref. example 35, 6-iodo-4-((tetrahydro-2H-thiopyran-4-yl)oxy)thieno[3,2-d]pyrimidine], the remaining binding at 1 µM is ≥ 75%.

Regarding `CN1CCC(Oc2ncnc3cc(I)sc23)CC1` [Ref. example 36, 6-iodo-4-((1-methylpiperidin-4-yl)oxy)thieno[3,2-d]pyrimidine], the remaining binding at 1 µM was ≥ 75%.

For the compound `O=S1(=O)CCC(Oc2ncnc3cc(I)sc23)CC1` [Ref. example 37, 4-((6-iodothieno[3,2-d]pyrimidin-4-yl)oxy)tetrahydro-2H-thiopyran 1,1-dioxide], the remaining binding at 1 µM is ≥ 75%.

Regarding `O=S(=O)(c1c(F)cccc1F)N1CCC(Oc2ncnc3ccsc23)CC1` [Ref. example 38, 4-((1-((2,6-difluorophenyl)sulfonyl)piperidin-4-yl)oxy)thieno[3,2-d]pyrimidine], the remaining binding at 1 µM lay in the range of 25 to 50%.

With `CS(=O)(=O)N1CCC(Oc2ncnc3ccsc23)CC1` [Ref. example 39, 4-((1-(methylsulfonyl)piperidin-4-yl)oxy)thieno[3,2-d]pyrimidine], the remaining binding at 1 µM was 50 to 75%.

For the compound `COCCS(=O)(=O)N1CCC(Oc2ncnc3ccsc23)CC1` [Ref. example 40, 4-((1-((2-methoxyethyl)sulfonyl)piperidin-4-yl)oxy)thieno[3,2-d]pyrimidine], the remaining binding at 1 µM was in the range of 25 to 50%.

In the case of `O=S(=O)(Cc1ccccc1)N1CCC(Oc2ncnc3ccsc23)CC1` [Ref. example 41, 4-((1-(benzylsulfonyl)piperidin-4-yl)oxy)thieno[3,2-d]pyrimidine], the remaining binding at 1 µM fell in the range of 25 to 50%.

Consider `CC(C)(C)OC(=O)N1CCC(CS(=O)(=O)N2CCC(Oc3ncnc4ccsc34)CC2)CC1` [Ref. example 42, tert-butyl 4-(((4-(thieno[3,2-d]pyrimidin-4-yloxy)piperidin-1-yl)sulfonyl)methyl)piperidine-1-carboxylate], for which the remaining binding at 1 µM is 50 to 75%.

On to `CCOC(=O)CCS(=O)(=O)N1CCC(Oc2ncnc3ccsc23)CC1` [Ref. example 43, ethyl 3-((4-(thieno[3,2-d]pyrimidin-4-yloxy)piperidin-1-yl)sulfonyl)propanoate], for which the remaining binding at 1 µM lay within 50 to 75%.

`O=S(=O)(C1CC1)N1CCC(Oc2ncnc3ccsc23)CC1` [Ref. example 44, 4-((1-(cyclopropylsulfonyl)piperidin-4-yl)oxy)thieno[3,2-d]pyrimidine]: the remaining binding at 1 µM lay within 25 to 50%.

For the compound `O=S(=O)(c1ccccc1Cl)N1CCC(Oc2ncnc3ccsc23)CC1` [Ref. example 45, 4-((1-((2-chlorophenyl)sulfonyl)piperidin-4-yl)oxy)thieno[3,2-d]pyrimidine], the remaining binding at 1 µM was < 25%.

On to `COc1ccccc1S(=O)(=O)N1CCC(Oc2ncnc3ccsc23)CC1` [Ref. example 46, 4-((1-((2-methoxyphenyl)sulfonyl)piperidin-4-yl)oxy)thieno[3,2-d]pyrimidine], for which the remaining binding at 1 µM is < 25%.

As to `Cc1ccccc1S(=O)(=O)N1CCC(Oc2ncnc3ccsc23)CC1` [Ref. example 47, 4-((1-(o-tolylsulfonyl)piperidin-4-yl)oxy)thieno[3,2-d]pyrimidine], the remaining binding at 1 µM is < 25%.

For the compound `O=S(=O)(c1ccccc1Oc1ccc(F)cc1)N1CCC(Oc2ncnc3ccsc23)CC1` [Ref. example 48, 4-((1-((2-(4-fluorophenoxy)phenyl)sulfonyl)piperidin-4-yl)oxy)thieno[3,2-d]pyrimidine], the remaining binding at 1 µM was < 25%.

On to `O=S(=O)(c1ccccc1F)N1CCC(Oc2ncnc3ccsc23)CC1` [Ref. example 49, 4-((1-((2-fluorophenyl)sulfonyl)piperidin-4-yl)oxy)thieno[3,2-d]pyrimidine], for which the remaining binding at 1 µM fell in the range of 25 to 50%.
